What was measured:
ECHCG [1] = test: Herbicidal pre-emergence action (Table A2); assay type: in vivo, Echinochloa crus-galli; conditions: visual grading after ca. 3 weeks
Outline: (§1)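 Sandy loam filled the pots; weed seeds went in as paired sowings of one grass-type and one broadleaf species, then were covered with soil.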

LOLRI [2] = test: Herbicidal pre-emergence action (Table A3); assay type: in vivo, Lolium rigidum; conditions: visual grading after ca. 3 weeks
Outline: as §1

MATIN = test: Herbicidal pre-emergence action (Table A4); assay type: in vivo, Matricaria inodora; conditions: application rate 1280 g/ha; visual grading after ca. 3 weeks
Outline: as §1

SETVI [3] = test: Herbicidal pre-emergence action (Table A5); assay type: in vivo, Setaria viridis; conditions: visual grading after ca. 3 weeks
Outline: as §1

STEME = test: Herbicidal pre-emergence action (Table A6); assay type: in vivo, Stellaria media; conditions: visual grading after ca. 3 weeks
Outline: as §1

POAAN [4] = test: Herbicidal pre-emergence action (Table A7); assay type: in vivo, Poa annua; conditions: visual grading after ca. 3 weeks
Outline: as §1

ALOMY [5] = test: Herbicidal pre-emergence action (Table A9); assay type: in vivo, Alopecurus myosuroides; conditions: application rate 1280 g/ha; visual grading after ca. 3 weeks
Outline: as §1

VERPE [6] = test: Herbicidal pre-emergence action (Table A11); assay type: in vivo, Veronica persica; conditions: application rate 1280 g/ha; visual grading after ca. 3 weeks
Outline: as §1

ECHCG [7] = test: Herbicidal post-emergence action (Table B3); assay type: in vivo, Echinochloa crus-galli; conditions: rated visually after about 3 weeks
Outline: (§2)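 Visual rating against untreated plants (0% = as control, 100% = dead) made roughly 3 weeks after application. Weed species were grown in sandy loam pots under greenhouse conditions and sprayed at the one-leaf stage, 2–3 weeks post-sowing.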

POAAN [8] = test: Herbicidal post-emergence action (Table B7); assay type: in vivo, Poa annua
Outline: as §2

SETVI [9] = test: Herbicidal post-emergence action (Table B8); assay type: in vivo, Setaria viridis; conditions: application rate 1280 g/ha
Experimental: (§3) Seeds of mono- and dicotyledonous weed plants were placed in plastic pots in sandy loam soil (doubly sown with in each case one species of mono- or dicotyledonous weed plants per pot), covered with soil and cultivated in a greenhouse under controlled growth conditions. 2 to 3 weeks after sowing, the test plants were treated at the one-leaf stage. […] After the test plants had been kept in the greenhouse under optimum growth conditions for about 3 weeks, the activity of the preparations was rated visually in comparison to untreated controls. For example, 100% activity = the plants have died, 0% activity = like control plants.

VERPE [10] = test: Herbicidal post-emergence action (Table B10); assay type: in vivo, Veronica persica
Experimental: as §3

AMARE [11] = test: Herbicidal post-emergence action (Table B11); assay type: in vivo, Amaranthus retroflexus
Experimental: as §3

ABUTH = test: Herbicidal pre-emergence action (Table A1); assay type: in vivo, Abutilon theophrasti; conditions: application rate 1280 g/ha; visual grading after ca. 3 weeks vs untreated controls (100% = plants have died off, 0% = as control plants)
Excerpt: (§4) Seeds of mono- and dicotyledonous weed plants were sown in plastic pots (double sowings with one species of mono- and one species of dicotyledonous weed plants per pot), in sandy loam, and covered with soil.

KCHSC = test: Herbicidal pre-emergence action (Table A10); assay type: in vivo, Kochia scoparia; conditions: application rate 1280 g/ha; visual grading after ca. 3 weeks
Outline: as §1

AMARE [12] = test: Herbicidal pre-emergence action (Table A8); assay type: in vivo, Amaranthus retroflexus; conditions: application rate 1280 g/ha; visual grading after ca. 3 weeks vs untreated controls (100% = plants have died off, 0% = as control plants)
Excerpt: as §4

DIGSA = test: Herbicidal pre-emergence action (Table A12); assay type: in vivo, Digitaria sanguinalis; conditions: application rate 1280 g/ha; visual grading after ca. 3 weeks
Outline: as §1

ALOMY [13] = test: Herbicidal pre-emergence action, section C (Table C2); assay type: in vivo, Alopecurus myosuroides; conditions: application rate 320 g/ha; visual grading after ca. 3 weeks
ECHCG [14] = test: Herbicidal pre-emergence action, section C (Table C6); assay type: in vivo, Echinochloa crus-galli; conditions: application rate 80 g/ha; visual grading after ca. 3 weeks
LOLRI [15] = test: Herbicidal pre-emergence action, section C (Table C7); assay type: in vivo, Lolium rigidum; conditions: application rate 320 g/ha; visual grading after ca. 3 weeks
SETVI [16] = test: Herbicidal pre-emergence action, section C (Table C10); assay type: in vivo, Setaria viridis; conditions: application rate 320 g/ha; visual grading after ca. 3 weeks
VIOTR = test: Herbicidal pre-emergence action, section C (Table C12); assay type: in vivo, Viola tricolor; conditions: application rate 320 g/ha; visual grading after ca. 3 weeks
ZEAMX [17] = test: Pre-emergence effects on crop plants (Table D1); assay type: in vivo, Zea mays; conditions: crop plant; application rate 80 g/ha; visual grading after ca. 3 weeks
Excerpt: Seeds of mono- and dicotyledonous weed plants and crop plants were sown, in plastic or organic planting pots, in sandy loam and covered with soil. The compounds according to the invention, formulated in the form of wettable powders (WP) or as emulsifiable concentrates (EC), were applied to the surface of the covering soil as aqueous suspension or emulsion, with the addition of 0.5% of an additive, at an application rate of 600 1 of water/ha (converted).
Following treatment, the pots were placed in a greenhouse and kept under optimum growth conditions for the test plants.

GLXMA = test: Pre-emergence effects on crop plants (Table D4); assay type: in vivo, Glycine max; conditions: crop plant; application rate 80 g/ha; visual grading after ca. 3 weeks
BRSNW [18] = test: Pre-emergence effects on crop plants (Table D5); assay type: in vivo, Brassica napus; conditions: crop plant; application rate 320 g/ha; visual grading after ca. 3 weeks
ECHCG [19] = test: Herbicidal post-emergence action, section E (Table E5); assay type: in vivo, Echinochloa crus-galli; conditions: application rate 320 g/ha; assessed visually after ca. 3 weeks
Excerpt: (§5) 2 to 3 weeks after sowing, the test plants were sprayed in the single-leaf stage.

ZEAMX [20] = test: Post-emergence effects on crop plants (Table F1); assay type: in vivo, Zea mays; conditions: application rate 80 g/ha, crop plant ZEAMX
Excerpt: as §5

TRZAS = test: Post-emergence effects on crop plants (Table F2); assay type: in vivo, Triticum aestivum; conditions: application rate 320 g/ha, crop plant TRZAS
Excerpt: as §5

ORYZA [21] = test: Post-emergence effects on crop plants (Table F3); assay type: in vivo, Oryza sativa; conditions: application rate 320 g/ha, crop plant ORYZA
Excerpt: as §5

BRSNW [22] = test: Post-emergence effects on crop plants (Table F5); assay type: in vivo, Brassica napus; conditions: application rate 320 g/ha, crop plant BRSNW
Excerpt: as §5

ORYZA [23] = test: Pre-emergence effects on crop plants (Table D3); conditions: crop plant; application rate 80 g/ha; visual grading after ca. 3 weeks

Structure (SMILES)	pre-emergence activity against ECHCG (ECHCG [1]; application rate 320 g/ha)	pre-emergence activity against LOLRI (LOLRI [2]; application rate 1280 g/ha)	pre-emergence activity against MATIN (MATIN)	pre-emergence activity against SETVI (SETVI [3]; application rate 320 g/ha)	pre-emergence activity against POAAN (POAAN [4]; application rate 320 g/ha)	pre-emergence activity against ALOMY (ALOMY [5])	post-emergence activity against POAAN (POAAN [8]; application rate 1280 g/ha)	post-emergence activity against AMARE (AMARE [11]; application rate 1280 g/ha)	pre-emergence activity against ECHCG (ECHCG [1]; application rate 1280 g/ha)	pre-emergence activity against LOLRI (LOLRI [2]; application rate 320 g/ha)	pre-emergence activity against SETVI (SETVI [3]; application rate 1280 g/ha)	pre-emergence activity against STEME (STEME; application rate 320 g/ha)	pre-emergence activity against KCHSC (KCHSC)	post-emergence activity against ECHCG (ECHCG [7]; application rate 1280 g/ha)	further results
O=C1N(Cc2cccc(Cl)c2F)CCCC12CCCN(Cc1cccc(Cl)c1F)C2=O (racemic) [I-007]	100%	100%	90%	100%	100%	90%	90%	90%							pre-emergence activity against STEME (STEME; application rate 1280 g/ha): 90%; pre-emergence activity against VERPE (VERPE [6]): 90%; post-emergence activity against ECHCG (ECHCG [7]; application rate 320 g/ha): 100%; post-emergence activity against SETVI (SETVI [9]): 90%; post-emergence activity against VERPE (VERPE [10]; application rate 320 g/ha): 90%
O=C1N(Cc2cccs2)CCCC12CCCN(Cc1cccc(F)c1F)C2=O (racemic) [I-040]			90%		100%			100%	100%	100%	100%	90%	90%	90%	pre-emergence activity against ABUTH (ABUTH): 90%; post-emergence activity against POAAN (POAAN [8]; application rate 320 g/ha): 100%; post-emergence activity against VERPE (VERPE [10]; application rate 1280 g/ha): 90%
O=C1N(Cc2ccsc2)CCCC12CCCN(Cc1ccsc1)C2=O (racemic) [I-046]		90%							100%		90%	100%			pre-emergence activity against POAAN (POAAN [4]; application rate 1280 g/ha): 100%; pre-emergence activity against AMARE (AMARE [12]): 90%; pre-emergence activity against DIGSA (DIGSA): 90%
COc1ccccc1CN1CCCC2(CCCN(Cc3cccc(F)c3F)C2=O)C1=O (racemic) [I-052]	100%			100%						100%				90%	post-emergence activity against AMARE (AMARE [11]; application rate 320 g/ha): 90%; pre-emergence activity against ALOMY (ALOMY [13]): 90%; pre-emergence activity against ECHCG (ECHCG [14]): 100%; pre-emergence activity against LOLRI (LOLRI [15]): 90%; pre-emergence activity against SETVI (SETVI [16]): 100%; pre-emergence activity against VIOTR (VIOTR): 80%; pre-emergence activity against ZEAMX (ZEAMX [17]): 0%; pre-emergence activity against GLXMA (GLXMA): 20%; pre-emergence activity against BRSNW (BRSNW [18]): 0%; post-emergence activity against ECHCG (ECHCG [19]): 80%; post-emergence activity against ZEAMX (ZEAMX [20]): 0%; post-emergence activity against TRZAS (TRZAS): 0%; post-emergence activity against ORYZA (ORYZA [21]): 20%; post-emergence activity against BRSNW (BRSNW [22]): 0%; pre-emergence activity against ORYZA (ORYZA [23]): 20%
O=C1N(Cc2cccs2)CCCC12CCCN(Cc1ccccc1F)C2=O (racemic) [I-065]	90%			90%		90%	90%	90%		100%			90%		
